Data taken from patent publication EP0555116B1, “Compositions based on antiseptics and their applications” (HUTCHINSON, priority 1992, dated 1993).
Like-named read-outs stand apart in the source and are kept apart here.

Experiments:
spermatozoïdes = test: Spermicidal action: vitality of spermatozoa (eosin-nigrosin, 100 spermatozoa examined); type: cell-based; conditions: Homo sapiens, Sperm; for viability at 0.4 %: read-out: vitalité des spermatozoïdes, solution 0,4 %; for viability at 0.6 %: read-out: vitalité des spermatozoïdes, solution 0,6 %; for viability at 0.8 %: read-out: vitalité des spermatozoïdes, solution 0,8 %; for viability at 1 %: read-out: vitalité des spermatozoïdes, solution 1 %
Excerpt: Les différents échantillons de sperme (une goutte de sperme/échantillon) sont obtenus à partir de volontaires sains.
Une goutte de sperme est traitée par l'éosinenigrosine. Un frottis est ensuite réalisé et cent spermatozoïdes sont examinés au microscope. Les cellules mortes sont colorées en rouge, soit totalement, soit partiellement. Les cellules vivantes sont incolores.
Les substances étudiées ont été, le Bardac® et le digluconate de chlorhexidine, testés seuls et en association conformément à l'invention. Les différentes étapes du protocole sont indiquées aux Tableaux IV à VI.
Le temps de contact maximum des différentes substances et du sperme a été limité à 3 minutes afin de garantir l'efficacité de la méthode dans les conditions d'utilisation. La concentration des solutions actives dans le sperme a été limitée à 10 % afin de diminuer les risques de toxicité des produits pour les muqueuses. TABLEAU IV

E. coli ATCC 11229 [1] = test: Growth inhibition test (DGHM, Essai 2, Tables A-C), 72 h at 37°C; non/A/B/C = without or with inactivating substances A, B, C; type: cell-based, Escherichia coli
Description: (§1) Un autre essai a été réalisé à partir des solutions suivantes : • 100 ml d'une solution à 0,1 % de digluconate de chlorhexidine (pH 6) et • 100 ml d'une solution à 0,1 % de Bardac 22®.
L'activité de ces solutions, seules ou en combinaison a été plus particulièrement testée vis-à-vis de Staphylococcus aureus ATCC 6538, Escherichia coli ATCC 11229 et Candida albicans ATCC 10231.
(§2) Les tests ont été réalisés conformément au protocole décrit dans le Chapitre I/2.1 et 2.2 de Richtlinien für die Prüfung und Bewertung chemischer Desinfektionsverfahren der DGHM, Stand 1.1., 1981).
Les Tableaux A, B et C illustrent respectivement l'activité bactéricide et fongicide d'une solution aqueuse à 0,1 % de digluconate de chlorhexidine, d'une solution aqueuse à 0,1 % de Bardac 22® et d'un mélange à part égale des deux composés. Les protocoles dont ces Tableaux illustrent les résultats comprennent une incubation de 72 heures à 37°C et l'utilisation, comme témoins, des substances inactivantes suivantes : A : Tween® 80 3 % + lécithine 0,3 % + cystéine 0,1 %; B : Tween® 80 3 % + saponine 3 % + cystéine 0,1 % + histidine 0,1 %; C : Tween® 80 3 % + lécithine 0,3 % + histidine 0,1 % + thiosulfate de sodium 0,5 %.
Dans ces Tableaux, le signe "+" indique une croissance et le signe "-" l'absence de croissance.

E. coli ATCC 11229 [2] = test: Disinfection time test (Essai 2, Tables D-F), reaction at 22°, subcultures 72 h at 37°C; type: cell-based, Escherichia coli
Description: as §1, §2
Les tests dont les résultats sont illustrés aux Tableaux D, E et F ont été réalisés à une température de réaction de 22° avec une incubation des sous-cultures 72 heures à 37°C avec comme substances inactivantes : Tween® 80 3 % + saponine 3 % + cystéine 0,1 % + histidine 0,1 %; ces Tableaux illustrent respectivement l'activité bactéricide et fongicide d'une solution aqueuse à 0,1 % de digluconate de chlorhexidine, d'une solution aqueuse à 0,1 % de Bardac 22® et d'un mélange à part égale des deux composés et montrent l'action des antiseptiques précités, en fonction du temps de contact, et font apparaître la même synergie d'action de l'association que ci-dessus, dans la mesure où l'association des deux composés permet de diminuer significativement leur concentration, pour l'obtention d'un même effet. TABLEAU D

[3] = 1 min, 1 Min, 5 % dans le sperme
[4] = 1 min, 1 Min, 10 % dans le sperme
[5] = 0.05 h, 3 Min, 5 % dans le sperme
[6] = 0.05 h, 3 Min, 10 % dans le sperme

Question: What does the source list for `CCCCCCCCCC[N+](C)(C)CCCCCCCCCC` [Bardac®, chlorure de didécyldiméthylammonium]?
Answer: viability at 0.4 % (spermatozoïdes; [3]): 10.7 ± 7.6%; viability at 0.4 % (spermatozoïdes; [4]): 5 ± 6.4%; viability at 0.6 % (spermatozoïdes; [3]): 10.5 ± 9.7%; viability at 0.6 % (spermatozoïdes; [4]): 9.2 ± 12.9%; viability at 0.8 % (spermatozoïdes; [3]): 9.7 ± 10.2%; viability at 0.8 % (spermatozoïdes; [4]): 1.8 ± 2.5%; viability at 1 % (spermatozoïdes; [3]): 0%; viability at 1 % (spermatozoïdes; [4]): 0%; viability at 0.4 % (spermatozoïdes; [5]): 0.8 ± 1.2%; viability at 0.4 % (spermatozoïdes; [6]): 0.8 ± 1%; viability at 0.6 % (spermatozoïdes; [5]): 2.2 ± 4.5%; viability at 0.6 % (spermatozoïdes; [6]): 0.4 ± 0.9%; viability at 0.8 % (spermatozoïdes; [5]): 0%; viability at 0.8 % (spermatozoïdes; [6]): 0%; viability at 1 % (spermatozoïdes; [5]): 0%; viability at 1 % (spermatozoïdes; [6]): 0%; croissance (E. coli ATCC 11229 [1]; Conc. 0,1 % (vol/vol), A): +; croissance (E. coli ATCC 11229 [1]; Conc. 0,1 % (vol/vol), B): +; croissance (E. coli ATCC 11229 [1]; Conc. 0,1 % (vol/vol), C): +; croissance (E. coli ATCC 11229 [1]; Conc. 0,1 % (vol/vol), non): +; croissance (E. coli ATCC 11229 [1]; Conc. 0,05 % (vol/vol), A): +; croissance (E. coli ATCC 11229 [1]; Conc. 0,5 % (vol/vol), A): +; croissance (E. coli ATCC 11229 [1]; Conc. 0,05 % (vol/vol), B): +; croissance (E. coli ATCC 11229 [1]; Conc. 0,5 % (vol/vol), B): +; croissance (E. coli ATCC 11229 [1]; Conc. 0,05 % (vol/vol), C): +; croissance (E. coli ATCC 11229 [1]; Conc. 0,5 % (vol/vol), C): +; croissance (E. coli ATCC 11229 [1]; Conc. 0,05 % (vol/vol), non): +; croissance (E. coli ATCC 11229 [1]; Conc. 0,5 % (vol/vol), non): -; croissance (E. coli ATCC 11229 [1]; Conc. 1,0 % (vol/vol), A): +; croissance (E. coli ATCC 11229 [1]; Conc. 1,0 % (vol/vol), B): +; croissance (E. coli ATCC 11229 [1]; Conc. 1,0 % (vol/vol), C): +; croissance (E. coli ATCC 11229 [1]; Conc. 1,0 % (vol/vol), non): -; croissance (E. coli ATCC 11229 [1]; Conc. 0,00625 % (vol/vol), A): +; croissance (E. coli ATCC 11229 [1]; Conc. 0,00625 % (vol/vol), B): +; croissance (E. coli ATCC 11229 [1]; Conc. 0,00625 % (vol/vol), C): +; croissance (E. coli ATCC 11229 [1]; Conc. 0,00625 % (vol/vol), non): +; croissance (E. coli ATCC 11229 [1]; Conc. 0,0125 % (vol/vol), A): +; croissance (E. coli ATCC 11229 [1]; Conc. 0,0125 % (vol/vol), B): +; croissance (E. coli ATCC 11229 [1]; Conc. 0,0125 % (vol/vol), C): +; croissance (E. coli ATCC 11229 [1]; Conc. 0,0125 % (vol/vol), non): +; croissance (E. coli ATCC 11229 [1]; Conc. 0,025 % (vol/vol), A): +; croissance (E. coli ATCC 11229 [1]; Conc. 0,025 % (vol/vol), B): +; croissance (E. coli ATCC 11229 [1]; Conc. 0,025 % (vol/vol), C): +; croissance (E. coli ATCC 11229 [1]; Conc. 0,025 % (vol/vol), non): +; concentration en substance active inhibant la croissance (E. coli ATCC 11229 [1]; antiseptique seul): 0,0005%; croissance (E. coli ATCC 11229 [2]; Conc. 0,1 % (vol/vol), 1 min): +; croissance (E. coli ATCC 11229 [2]; Conc. 0,1 % (vol/vol), 3 min): +; croissance (E. coli ATCC 11229 [2]; Conc. 0,1 % (vol/vol), 5 min): +; croissance (E. coli ATCC 11229 [2]; Conc. 0,1 % (vol/vol), 15 min): +; croissance (E. coli ATCC 11229 [2]; Conc. 0,1 % (vol/vol), 30 min): +; croissance (E. coli ATCC 11229 [2]; Conc. 0,1 % (vol/vol), 60 min): +; croissance (E. coli ATCC 11229 [2]; Conc. 0,05 % (vol/vol), 1 min): +; croissance (E. coli ATCC 11229 [2]; Conc. 0,5 % (vol/vol), 1 min): +; croissance (E. coli ATCC 11229 [2]; Conc. 0,05 % (vol/vol), 3 min): +; croissance (E. coli ATCC 11229 [2]; Conc. 0,5 % (vol/vol), 3 min): +; croissance (E. coli ATCC 11229 [2]; Conc. 0,05 % (vol/vol), 5 min): +; croissance (E. coli ATCC 11229 [2]; Conc. 0,5 % (vol/vol), 5 min): +; croissance (E. coli ATCC 11229 [2]; Conc. 0,05 % (vol/vol), 15 min): +; croissance (E. coli ATCC 11229 [2]; Conc. 0,5 % (vol/vol), 15 min): +; croissance (E. coli ATCC 11229 [2]; Conc. 0,05 % (vol/vol), 30 min): +; croissance (E. coli ATCC 11229 [2]; Conc. 0,5 % (vol/vol), 30 min): +; croissance (E. coli ATCC 11229 [2]; Conc. 0,05 % (vol/vol), 60 min): +; croissance (E. coli ATCC 11229 [2]; Conc. 0,5 % (vol/vol), 60 min): +; croissance (E. coli ATCC 11229 [2]; Conc. 1 % (vol/vol), 1 min): +; croissance (E. coli ATCC 11229 [2]; Conc. 1 % (vol/vol), 3 min): +; croissance (E. coli ATCC 11229 [2]; Conc. 1 % (vol/vol), 5 min): +; croissance (E. coli ATCC 11229 [2]; Conc. 1 % (vol/vol), 15 min): +; croissance (E. coli ATCC 11229 [2]; Conc. 1 % (vol/vol), 30 min): +; croissance (E. coli ATCC 11229 [2]; Conc. 1 % (vol/vol), 60 min): +; croissance (E. coli ATCC 11229 [2]; Conc. 5 % (vol/vol), 1 min): +; croissance (E. coli ATCC 11229 [2]; Conc. 5 % (vol/vol), 3 min): +; croissance (E. coli ATCC 11229 [2]; Conc. 5 % (vol/vol), 5 min): +; croissance (E. coli ATCC 11229 [2]; Conc. 5 % (vol/vol), 15 min): -; croissance (E. coli ATCC 11229 [2]; Conc. 5 % (vol/vol), 30 min): -; croissance (E. coli ATCC 11229 [2]; Conc. 5 % (vol/vol), 60 min): -; croissance (E. coli ATCC 11229 [2]; Conc. 10 % (vol/vol), 1 min): +; croissance (E. coli ATCC 11229 [2]; Conc. 10 % (vol/vol), 3 min): +; croissance (E. coli ATCC 11229 [2]; Conc. 10 % (vol/vol), 5 min): -; croissance (E. coli ATCC 11229 [2]; Conc. 10 % (vol/vol), 15 min): -; croissance (E. coli ATCC 11229 [2]; Conc. 10 % (vol/vol), 30 min): -; croissance (E. coli ATCC 11229 [2]; Conc. 10 % (vol/vol), 60 min): -; croissance (E. coli ATCC 11229 [2]; Conc. 25 % (vol/vol), 1 min): -; croissance (E. coli ATCC 11229 [2]; Conc. 25 % (vol/vol), 3 min): -; croissance (E. coli ATCC 11229 [2]; Conc. 25 % (vol/vol), 5 min): -; croissance (E. coli ATCC 11229 [2]; Conc. 25 % (vol/vol), 15 min): -; croissance (E. coli ATCC 11229 [2]; Conc. 25 % (vol/vol), 30 min): -; croissance (E. coli ATCC 11229 [2]; Conc. 25 % (vol/vol), 60 min): -
